Reference: patent publication US20170035824A1, “USAGE OF OBLONGIFOLIN C, A NATURAL COMPOUND FROM GARCINIA YUNNANENSIS HU, ON TREATING CANCER AS METASTASIS INHIBITOR AND AUTOPHAGIC FLUX INHIBITOR” (Hong Kong Baptist University, priority 2013, published 2017)
Structures can show the parent of a compound that is named as a salt.

Experiments:
[1] = tested on: HeLa cells stably expressing GFP-LC3; assay: Live cell imaging and colocalization analysis (GFP-LC3 / LysoTracker Red); format: cell-based; details: OC 15 μM or HCQ 50 μM, 8 hours, FIG. 11
Procedure: Live cell images of GFP-LC3 and LysoTracker Red were taken using Olympus confocal microscope. The enlarged images show the colocalization of two signals.
(§1) For lysotracker staining, HeLa or MEF cells grown on coverslips were stained with 50 nM Lysotracker Red DND-99 (Molecular Probes, Invitrogen, L7528) in pre-warmed medium for 20 min at 37° C. All of the samples were examined under an Olympus FV1000 confocal microscope (Olympus) equipped with a 63×oil immersion objective. The confocal images were acquired using FV10-ASW 2.0 software. Calculation of Pearson's correlation coefficient (PCC) was applied to quantify colocalization. PCC was calculated by FV10-ASW 2.0 software between the stack of images from two channels.

[2] = literature background; cited from earlier work
[3] = tested on: lysosomal proteolytic activity; assay: Lysosomal proteolytic activity / autophagic flux; format: cell-based
HeLa cells [4] = assay: Western blot for endogenous LC3 / SQSTM1; format: cell-based
Procedure: (§2) GAPDH was used as a loading control. An image J densitometric analysis of the LC3-II/GAPDH ratio from LC3 immunoblots was shown.
(§3) Samples were analyzed by western blotting for endogenous SQSTM1 and GAPDH. An image J densitometric analysis of the SQSTM1/GAPDH ratio from immunoblots was shown.
(§4) Cells were lysed in ice-cold whole cell extract buffer (50 mM pH8.0 Tris-HCl, 4M urea and 1% TritonX-100), supplemented with complete protease inhibitor mixture (Roche Diagnostics, 04693132001). Cell extracts were resolved by SDS-PAGE gel electrophoresis and transferred to a nitrocellulose membrane. After blocking with 5% non-fat milk in Tris-buffered saline containing 0.2% Tween-20, the membranes were probed with the following antibodies: LC3B (sigma, L7543), SQSTM1/p62 (MBL, PM045), GAPDH (Proteintech, 10494-1-AP), CASP3 (Cell signaling, #9962). Following incubation with horseradish peroxidase coupled secondary anti-mouse (KPL, 074-1806) or anti-rabbit antibodies (KPL, 474-1506), protein bands were visualized using ECL Blotting Detection Reagents (KPL, 54-61-00).

[5] = tested on: mouse embryonic fibroblast cells (MEF); assay: GFP-LC3 translocation; format: cell-based; details: 10 μM, 24 hours, FIG. 7
Procedure: (§5) MEF, HeLa, CNE, HCT116, MCF7 and HepG2 cells were transfected with pEGFP-LC3 plasmid using lipofectamine 2000 (Invitrogen, 11668-019). One day after transfection, cells were treated with 10 μM Oblongifolin C for 24 hours prior to fixation. Image acquisition was done using an Olympus FV1000 confocal microscope. The number of GFP-LC3 dots was counted from at least 150 cells from randomly placed positions within each sample.

[6] = tested on: human nasopharyngeal cancer cells (CNE); assay: GFP-LC3 translocation; format: cell-based; details: 10 μM, 24 hours, FIG. 7
Procedure: as §5

[7] = tested on: human colon cancer cells (HCT116); assay: GFP-LC3 translocation; format: cell-based; details: HCT116, 10 μM, 24 hours, FIG. 7
Procedure: as §5

[8] = tested on: human hepatocytes (HepG2); assay: GFP-LC3 translocation; format: cell-based; details: HepG2, 10 μM, 24 hours, FIG. 7
Procedure: as §5

[9] = tested on: human breast cancer cells (MCF7); assay: GFP-LC3 translocation; format: cell-based; details: MCF7, 10 μM, 24 hours, FIG. 7
Procedure: as §5

HeLa-LC3-GFP cells = assay: GFP-LC3 translocation and quantitative analyses; format: cell-based; details: OC 5, 10 and 20 μM, 24 hours, FIG. 5 and 6
Text: as §5, with “One day after transfection, cells were treated with 10 μM Oblongifolin C for 24 hours prior to fixation.” left out

CNE cells = assay: Flow cytometry (propidium iodide), complete vs nutrient-deprived medium; format: cell-based, human; details: OC 5 μM, EBSS vs DMEM, 24 hours, FIG. 13
Procedure: (§6) The cells were fixed and stained with propidium iodide (PI).
(§7) HeLa, HCT116, CNE, MCF7, MDA-MB-231, HepG2 and MEFs were maintained in Dulbecco's modified Eagle's medium (Gibco/Invitrogen, 12800-017) supplemented with 10% fetal bovine serum 100U/m1 penicillin-streptomycin (Gibco/ Invitrogen, 15140-122) at 37° C. in a humidified 5% CO2 incubator. For nutrient starvation, HeLa or CNE cells cultured in DMEM were washed three times with PBS, then cultured in Earle's Balanced Salt Solution (EBSS, Sigma, E6132) for indicated time point.
(§8) Cells were treated with Oblongifolin C then cultured in complete (DMEM with serum) or nutrient deprived medium (EBSS) for 24 hours. The cells were fixed in 70% ethanol in PBS overnight. For cell cycle distribution, cells were counterstained with propidium iodide and analyzed for DNA content by use of a BD Influx™ flow cytometer.

ECA109 cells [10] = assay: Anti-invasion assay (Matrigel assay); format: cell-based, human; details: ECA109, 72 hr, FIG. 4
Procedure: (§9) Human esophageal cancer cell line ECA109 were maintained in RPMI1640 (Gibco/Invitrogen) supplemented with 10% fetal bovine serum (Invitrogen), 100 U/ml penicillin-streptomycin (Gibco/ Invitrogen, 15140-122), within a humidified atmosphere containing 5% CO2 at 37° C.
(§10) Cell invasion was determined using Matrigel (BD) coated transwell (Corning) with pore size of 8 μm. 5×10^4 cells that were seeded in serum-free medium in the upper chamber, while medium containing 10% FBS in the lower chamber. After incubating for 72 hr at 37° C., cells in the upper chamber were carefully removed with a cotton swab and the cells that had traversed to reverse face of the membrane were fixed in methanol, stained with Giemsa, and counted.

HeLa cells xenograft = assay: Anti-cancer activity in vivo, cervical cancer xenograft; design: species or system BALB/c nude mice; details: for tumor size versus vehicle treated mice: HeLa xenograft, intratumoral once every 2 days, seven injections, OC 12 μg, Etopside 4 μg
Procedure: Four weeks old nude mice were engrafted with HeLa cells and observed until tumors reached ˜100 mm^3. Tumor-bearing mice were then treated vehicle, OC (12 μg) or Etopside (4 μg) […] by intratumoral once every 2 days for a total of seven injections. Mice were killed and tumors resected and weighed 2 days after the final injection.
Four-week-old BALB/c nude mice were purchased from the Experimental Animal
Center of Chinese Academy of Science (Shanghai, China) and kept in pathogen free environment at Experimental Animal Center in Shanghai University of Traditional Chinese Medicine. The mice have an average weight of 20 g. Approximately 2×10^6 HeLa cells were injected into the left and right sides of the animals. Two weeks later, 15 mice bearing tumors around 100 mm^3 in volume were randomly divided into vehicle control, etoposide (positive control) and oblongifolin C-treated groups. The mice were administered via intratumoral injection at the dose of 4 μg etopside or 12 μg OC in 200 μl solvent (0.05% DMSO, 0.05% Tween-80 in PBS) once every two days for two weeks. The tumor size was measured over a period of two weeks.

[11] = tested on: human colorectal cancer cell lines; details: previous studies (Feng et al. 2012; Huang et al. 2009); cited from earlier work
HeLa cells [12] = assay: Western blot for cleaved Caspase 3 in DMEM or EBSS medium; format: cell-based; details: DMEM and EBSS, 24 hours, FIG. 14
Procedure: Samples were analyzed by western blotting for cleaved Caspase 3, LC3 and SQSTM1. GAPDH was used as a loading control.
as §4, §8

HeLa cells [13] = assay: Flow cytometry (propidium iodide), complete vs nutrient-deprived medium; format: cell-based; details: OC 5 μM, EBSS vs DMEM, 24 hours, FIG. 13
Procedure: as §6, §7, §8

ECA109 cells [14] = assay: Transwell assay (cell migration); format: cell-based, human; details: ECA109, 24 hours, FIG. 3
Procedure: as §9
as §10, with “migration” for “invasion”, “was also” for “was”, “a” for “Matrigel (BD) coated”, “24 hours” for “72 hr”

ECA109 cells [15] = assay: Wound healing assay; format: cell-based, human; details: ECA109, 24 hours, FIG. 2
Procedure: as §9
ECA109 cells were seeded on 12-well plates at a density of 1×10^5 cells/well. After the cells reached sub-confluence, the mono-layer cells were wounded by scraping off the cells and then grown in medium for 24 hours. The migrated distance of cells was monitored and imaged under a microscope.

MEF cells = assay: Western blot for endogenous LC3 / SQSTM1; format: cell-based, mouse
Procedure: as §2, §3, §4

MEF = assay: Live cell imaging and colocalization analysis (GFP-LC3 / LysoTracker Red); format: cell-based, mouse; details: OC 15 μM, 8 hours, FIG. 12
Procedure: The colocalization of GFP-LC3 and LysoTracker Red were analyzed by confocal microscopy. The enlarged images show the colocalization of two signals.
as §1

CCN(CCO)CCCC(C)Nc1ccnc2cc(Cl)ccc12 (centres unmarked) [HCQ, hydroxychloroquine sulfate, reference compound]
autophagosome-lysosome fusion (colocalization of GFP-LC3 and LysoTracker Red) [1]: block autophagosome-lysosome fusion

CC(C)=CCC[C@]1(C)C=Cc2c(O)c3c(c(CC=C(C)C)c2O1)O[C@]12C(=C[C@@H]4C[C@H]1C(C)(C)O[C@@]2(C/C=C(/C)C(=O)O)C4=O)C3=O [GA, gambogic acid]
toxicity [2]: induces toxicity to the liver and kidney

CC(C)=CCC/C(C)=C/C[C@@H]1C[C@]2(CC=C(C)C)C(=O)[C@@](CC=C(C)C)(C(=O)C(C(=O)c3ccc(O)c(O)c3)=C2O)[C@@]1(C)CCC=C(C)C [Oblongifolin C]
autophagic flux and lysosomal proteolytic activity [3]: blocks both autophagic flux and lysosomal proteolytic activity | amount of LC3-II protein (FIG. 10; autophagic flux) (HeLa cells [4]; OC 15 μM over a time period, FIG. 10): increase the amount of LC3-II protein in a time-dependent manner | amount of LC3-II protein (time dependence) (HeLa cells [4]; OC 15 μM, 0, 4, 8, 12 and 24 hours, FIG. 9): increase the amount of LC3-II protein in a time-dependent manner | amount of LC3-II protein (dose dependence) (HeLa cells [4]; OC 2, 5, 10 and 25 μM, 24 hours, FIG. 8): increase the amount of LC3-II protein in a dose-dependent manner | GFP-LC3 puncta formation [5]: could regulate GFP-LC3 puncta formation | GFP-LC3 puncta formation [6]: could regulate GFP-LC3 puncta formation | GFP-LC3 puncta formation [7]: could regulate GFP-LC3 puncta formation | GFP-LC3 puncta formation [8]: could regulate GFP-LC3 puncta formation | GFP-LC3 puncta formation [9]: could regulate GFP-LC3 puncta formation | GFP-LC3 puncta formation (HeLa-LC3-GFP cells): could regulate GFP-LC3 puncta formation at concentration dependent manner | apoptosis of nutrient-deprived cancer cells (CNE cells): sensitizes nutrient-deprived cancer cells to apoptosis | cell invasion through matrigel (ECA109 cells [10]): suppress ECA109 cells invasion through matrigel at a concentration dependent manner | anticancer effect in cervical cancer xenograft (HeLa cells xenograft; 12 μg OC intratumoral once every two days for two weeks, FIG. 15): anticancer effect similar to etopside | tumor size versus vehicle treated mice (HeLa cells xenograft): smaller than those of vehicle treated mice | effective dosage for mouse (HeLa cells xenograft; based on 12 μg given to 20 g mouse): 0.6 mg/kg | tumor markers in cervical cancer xenograft mouse model (Caspase 3, LC3, SQSTM1, lysosomal cathepsins) (HeLa cells xenograft; cervical cancer xenograft mouse model): increased Casepse 3 cleavage, LC3 and SQSTM1 accumulation, and reduced expression of lysosomal cathepsins | relative potency among PPAP compounds [11]: most potent PPAP compound | Caspase 3 cleavage (HeLa cells [12]): resulted in Caspase 3 and cleavage in concentration-dependent manner | autophagosome-lysosome fusion (colocalization of GFP-LC3 and LysoTracker Red) [1]: block autophagosome-lysosome fusion | apoptosis of nutrient-deprived cancer cells (HeLa cells [13]): sensitizes nutrient-deprived cancer cells to apoptosis | cell migration through transwell (ECA109 cells [14]): suppress ECA109 cells migration through transwell at concentration dependent manner | wound healing (migrated distance of cells) (ECA109 cells [15]): suppressed the wound healing in a concentration dependent manner | amount of LC3-II protein (time dependence) (MEF cells; MEF, OC 15 μM, 0, 4, 8, 12 and 24 hours, FIG. 9): increase the amount of LC3-II protein in a time-dependent manner | amount of LC3-II protein (dose dependence) (MEF cells; MEF, OC 2, 5, 10 and 25 μM, 24 hours, FIG. 8): increase the amount of LC3-II protein in a dose-dependent manner | amount of LC3-II protein (FIG. 10; autophagic flux) (MEF cells; MEFs, OC 15 μM over a time period, FIG. 10): increase the amount of LC3-II protein in a time-dependent manner | autophagosome-lysosome fusion (colocalization of GFP-LC3 and LysoTracker Red) (MEF): block autophagosome-lysosome fusion

COc1cc([C@@H]2c3cc4c(cc3[C@@H](O[C@@H]3O[C@@H]5CO[C@@H](C)O[C@H]5[C@H](O)[C@H]3O)[C@H]3COC(=O)[C@H]23)OCO4)cc(OC)c1O [Etop, etoposide, reference compound]
tumor size versus vehicle treated mice (HeLa cells xenograft): smaller than those of vehicle treated mice
